Measured values reported in ChEMBL document CHEMBL1141569, “Synthesis and antimicrobial activity of 3-arylamino-1-chloropropan-2-ols” (Bioorg Med Chem Lett, 2008).
Values after ≈ are worked out from the molar mass of the structure shown.

Assays:
[1] = tested on: Aspergillus fumigatus; assay: Antifungal activity against Aspergillus fumigatus assessed as inhibition per disc by microbroth dilution assay; type: functional
[2] = Toxicity in human erythrocytes assessed as hemolysis upto 250 ug/mL; type: cell-based; settings: erythrocyte
[3] = tested on: Salmonella typhi; assay: Antibacterial activity against Salmonella typhi at 31.25 ug/mL; type: functional, Salmonella enterica subsp. enterica serovar Typhi; settings: Salmonella enterica
[4] = tested on: Aspergillus flavus; assay: Antifungal activity against Aspergillus flavus assessed as inhibition per disc by disc diffusion method; type: functional
[5] = tested on: Aspergillus flavus; assay: Antifungal activity against Aspergillus flavus assessed as inhibition per disc by percent spore germination inhibition method; type: functional
[6] = tested on: Aspergillus niger; assay: Antifungal activity against Aspergillus niger assessed as inhibition per disc by disc diffusion method; type: functional
[7] = tested on: Aspergillus fumigatus; assay: Antifungal activity against Aspergillus fumigatus assessed as inhibition per disc by disc diffusion method; type: functional
[8] = tested on: Aspergillus niger; assay: Antifungal activity against Aspergillus niger assessed as inhibition per disc by percent spore germination inhibition method; type: functional
[9] = tested on: Candida albicans; assay: Antifungal activity against Candida albicans assessed as inhibition per disc by percent growth inhibition assay; type: functional
[10] = tested on: Pseudomonas aeruginosa; assay: Antibacterial activity against Pseudomonas aeruginosa by microbroth dilution assay; type: functional
[11] = tested on: Staphylococcus aureus; assay: Antibacterial activity against Staphylococcus aureus by microbroth dilution assay; type: functional
[12] = tested on: Aspergillus fumigatus; assay: Antifungal activity against Aspergillus fumigatus assessed as inhibition per disc by percent spore germination inhibition method; type: functional
[13] = tested on: Salmonella typhi; assay: Antibacterial activity against Salmonella typhi by microbroth dilution assay; type: functional, Salmonella enterica subsp. enterica serovar Typhi; settings: Salmonella enterica
[14] = tested on: Aspergillus flavus; assay: Antifungal activity against Aspergillus flavus assessed as inhibition per disc by microbroth dilution assay; type: functional
[15] = tested on: Streptococcus pneumoniae; assay: Antibacterial activity against Streptococcus pneumoniae by micro-broth dilution assay; type: functional
[16] = tested on: Aspergillus niger; assay: Antifungal activity against Aspergillus niger assessed as inhibition per disc by microbroth dilution assay; type: functional
[17] = tested on: Candida albicans; assay: Antifungal activity against Candida albicans at 31.25 ug/mL; type: functional
[18] = Toxicity in human erythrocytes assessed as hemolysis upto 3.91 ug/mL; type: cell-based, Erythrocyte; settings: read-out: Activity
[19] = Toxicity in human erythrocytes assessed as hemolysis upto 1.70 ug/mL; type: cell-based, Erythrocyte; settings: read-out: Activity
[20] = Toxicity in human erythrocytes assessed as hemolysis upto 62.5 ug/mL; type: cell-based, Erythrocyte; settings: read-out: Activity
[21] = tested on: Pseudomonas aeruginosa; assay: Antibacterial activity against Pseudomonas aeruginosa at 31.25 ug/mL; type: functional
[22] = tested on: Aspergillus fumigatus; assay: Antifungal activity against Aspergillus fumigatus at 5.85 ug/mL; type: functional
[23] = Toxicity in human erythrocytes assessed as hemolysis upto 4000 ug/mL; type: cell-based; settings: erythrocyte

OC(CCl)CNc1ccc(Cl)cc1Cl (stereo unspecified)
MIC [1]: 62.5 µg/mL
Activity [2]: Non-toxic
inhibition at 31.25 µg/mL [3]: 90%
MIC [4]: 46.87 µg
MIC [5]: 62.5 µg/mL (≈ 246 µM)
MIC [6]: 93.75 µg
MIC [7]: 23.43 µg
MIC [8]: 125 µg/mL (≈ 491 µM)
MIC [9]: 62.5 µg/mL (≈ 246 µM)
MIC [10]: 62.5 µg/mL (≈ 246 µM)
MIC [11]: 500 µg/mL (≈ 1960 µM)
MIC [12]: 62.5 µg/mL (≈ 246 µM)
MIC [13]: 31.3 µg/mL (≈ 123 µM)
MIC [14]: 125 µg/mL
MIC [15]: 125 µg/mL (≈ 491 µM)
MIC [16]: 125 µg/mL

OC(CCl)CNc1c(Cl)cccc1Cl (stereo unspecified)
MIC [1]: 125 µg/mL
Activity [2]: Non-toxic
MIC [4]: 46.87 µg
MIC [5]: 62.5 µg/mL (≈ 246 µM)
MIC [6]: 93.75 µg
MIC [7]: 46.87 µg
MIC [8]: 125 µg/mL (≈ 491 µM)
MIC [9]: 31.2 µg/mL (≈ 123 µM)
MIC [10]: 125 µg/mL (≈ 491 µM)
MIC [11]: 500 µg/mL (≈ 1960 µM)
MIC [12]: 125 µg/mL (≈ 491 µM)
MIC [13]: 500 µg/mL (≈ 1960 µM)
MIC [14]: 125 µg/mL
MIC [15]: 500 µg/mL (≈ 1960 µM)
MIC [16]: 250 µg/mL
inhibition at 31.25 µg/mL [17]: 90%

C[C@@H]1[C@H](O)[C@@H](C)/C=C/C=C/C=C/C=C/C=C/C=C/C=C/[C@H](O[C@@H]2O[C@H](C)[C@@H](O)[C@H](N)[C@@H]2O)C[C@@H]2O[C@](O)(C[C@@H](O)C[C@@H](O)[C@H](O)CC[C@@H](O)C[C@@H](O)CC(=O)O[C@H]1C)C[C@H](O)[C@H]2C(=O)O (stereo in doubt) [AMPHOTERICIN B]
MIC [1]: 1.95 µg/mL
hemolysis at 3.91 ug/mL [18]: 5.52%
MIC [4]: 0.73 µg
MIC [5]: 1.95 µg/mL (≈ 2.11 µM)
MIC [6]: 0.73 µg
hemolysis at 1.7 ug/mL [19]: 50%
MIC [7]: 0.73 µg
MIC [8]: 1.95 µg/mL (≈ 2.11 µM)
hemolysis at 62.5 ug/mL [20]: 100%
MIC [12]: 1.95 µg/mL (≈ 2.11 µM)
MIC [14]: 1.95 µg/mL
MIC [16]: 1.95 µg/mL

OC(CCl)CNc1cc(Cl)cc(Cl)c1 (stereo unspecified)
MIC [1]: 125 µg/mL
Activity [2]: Non-toxic
inhibition at 31.25 µg/mL [3]: 90%
MIC [4]: 46.87 µg
MIC [5]: 125 µg/mL (≈ 491 µM)
MIC [6]: 93.75 µg
MIC [7]: 46.87 µg
MIC [8]: 250 µg/mL (≈ 982 µM)
MIC [9]: 31.2 µg/mL (≈ 123 µM)
MIC [10]: 62.5 µg/mL (≈ 246 µM)
MIC [11]: 125 µg/mL (≈ 491 µM)
MIC [12]: 125 µg/mL (≈ 491 µM)
MIC [13]: 31.3 µg/mL (≈ 123 µM)
MIC [14]: 125 µg/mL
MIC [15]: 250 µg/mL (≈ 982 µM)
MIC [16]: 250 µg/mL
inhibition at 31.25 µg/mL [17]: 90%

CN(C)[C@@H]1C(O)=C(C(N)=O)C(=O)[C@@]2(O)C(O)=C3C(=O)c4c(O)cccc4[C@@](C)(O)[C@H]3C[C@@H]12 [TETRACYCLINE]
hemolysis at 3.91 ug/mL [18]: 4.26%
hemolysis at 62.5 ug/mL [20]: 11.7%
MIC [10]: 7.9 µg/mL (≈ 17.8 µM)
MIC [11]: 7.9 µg/mL (≈ 17.8 µM)
MIC [13]: 15.6 µg/mL (≈ 35.1 µM)
MIC [15]: 7.9 µg/mL (≈ 17.8 µM)

OC(CCl)CNc1ccc(Cl)c(Cl)c1 (stereo unspecified)
MIC [1]: 31.2 µg/mL
inhibition at 31.25 µg/mL [21]: 90%
Activity [2]: Non-toxic
MIC [4]: 23.43 µg
MIC [5]: 31.2 µg/mL (≈ 123 µM)
MIC [6]: 46.87 µg
MIC [7]: 11.71 µg
MIC [8]: 62.5 µg/mL (≈ 246 µM)
MIC [9]: 125 µg/mL (≈ 491 µM)
MIC [10]: 31.3 µg/mL (≈ 123 µM)
MIC [11]: 62.5 µg/mL (≈ 246 µM)
MIC [12]: 31.2 µg/mL (≈ 123 µM)
MIC [13]: 62.5 µg/mL (≈ 246 µM)
MIC [14]: 62.5 µg/mL
MIC [15]: 125 µg/mL (≈ 491 µM)
MIC [16]: 62.5 µg/mL

OC(CCl)CNc1cc(Cl)ccc1Cl (stereo unspecified)
MIC [1]: 125 µg/mL
Activity [2]: Non-toxic
MIC [4]: 93.75 µg
MIC [5]: 62.5 µg/mL (≈ 246 µM)
MIC [6]: 93.75 µg
MIC [7]: 46.87 µg
MIC [8]: 125 µg/mL (≈ 491 µM)
MIC [9]: 62.5 µg/mL (≈ 246 µM)
MIC [10]: 62.5 µg/mL (≈ 246 µM)
MIC [11]: 250 µg/mL (≈ 982 µM)
MIC [12]: 125 µg/mL (≈ 491 µM)
MIC [13]: 250 µg/mL (≈ 982 µM)
MIC [14]: 125 µg/mL
MIC [15]: 500 µg/mL (≈ 1960 µM)
MIC [16]: 125 µg/mL

OC(CCl)CNc1cccc(Cl)c1Cl (stereo unspecified)
MIC [1]: 125 µg/mL
Activity [2]: Non-toxic
MIC [4]: 46.87 µg
MIC [5]: 125 µg/mL (≈ 491 µM)
MIC [6]: 93.75 µg
MIC [7]: 46.87 µg
MIC [8]: 125 µg/mL (≈ 491 µM)
MIC [9]: 62.5 µg/mL (≈ 246 µM)
MIC [10]: 62.5 µg/mL (≈ 246 µM)
MIC [11]: 500 µg/mL (≈ 1960 µM)
MIC [12]: 62.5 µg/mL (≈ 246 µM)
MIC [13]: 62.5 µg/mL (≈ 246 µM)
MIC [14]: 125 µg/mL
MIC [15]: 62.5 µg/mL (≈ 246 µM)
MIC [16]: 125 µg/mL

OC(CCl)CNc1ccccc1Cl (stereo unspecified)
MIC [1]: 31.2 µg/mL
Activity [2]: Non-toxic
MIC [4]: 23.43 µg
MIC [5]: 31.2 µg/mL (≈ 142 µM)
inhibition at 5.85 µg/mL [22]: 90%
MIC [6]: 23.43 µg
MIC [7]: 11.71 µg
MIC [8]: 62.5 µg/mL (≈ 284 µM)
MIC [9]: 250 µg/mL (≈ 1140 µM)
MIC [10]: 62.5 µg/mL (≈ 284 µM)
MIC [11]: 500 µg/mL (≈ 2270 µM)
MIC [12]: 31.2 µg/mL (≈ 142 µM)
MIC [13]: 250 µg/mL (≈ 1140 µM)
MIC [14]: 63.5 µg/mL
MIC [15]: 250 µg/mL (≈ 1140 µM)
MIC [16]: 62.5 µg/mL

OC(CCl)CNc1cccc(Cl)c1 (stereo unspecified)
MIC [1]: 62.5 µg/mL
Activity [2]: Non-toxic
MIC [4]: 46.87 µg
MIC [5]: 62.5 µg/mL (≈ 284 µM)
MIC [6]: 46.87 µg
MIC [7]: 23.43 µg
MIC [8]: 62.5 µg/mL (≈ 284 µM)
MIC [9]: 125 µg/mL (≈ 568 µM)
MIC [10]: 250 µg/mL (≈ 1140 µM)
MIC [11]: 1000 µg/mL (≈ 4540 µM)
MIC [12]: 62.5 µg/mL (≈ 284 µM)
MIC [13]: 500 µg/mL (≈ 2270 µM)
MIC [14]: 62.5 µg/mL
MIC [15]: 500 µg/mL (≈ 2270 µM)
MIC [16]: 62.5 µg/mL

OC(CCl)CNc1ccc(Cl)cc1 (stereo unspecified)
MIC [1]: 15.6 µg/mL
Activity [2]: Non-toxic
MIC [4]: 11.71 µg
MIC [5]: 15.6 µg/mL (≈ 71 µM)
inhibition at 5.85 µg/mL [22]: 90%
MIC [6]: 23.43 µg
MIC [7]: 5.85 µg
MIC [8]: 31.2 µg/mL (≈ 142 µM)
Activity [23]: Non-toxic
MIC [9]: 62.5 µg/mL (≈ 284 µM)
MIC [10]: 125 µg/mL (≈ 568 µM)
MIC [11]: 1000 µg/mL (≈ 4540 µM)
MIC [12]: 15.6 µg/mL (≈ 71 µM)
MIC [13]: 62.5 µg/mL (≈ 284 µM)
MIC [14]: 31.2 µg/mL
MIC [15]: 500 µg/mL (≈ 2270 µM)
MIC [16]: 31.2 µg/mL
